From US20010049353A1, “Method of using secretin and compositions made therefrom for the treatment of autism and other neurological, behavioral and immunological disorders” (Repligen Corporation, priority 1998, published 2001)
No end group written: not given here.

Key:
[1] = test system: abnormal opioid peptides in autistic children; conditions: autistic children that responded to casein free and gluten free diet; measured before and after infusion; cited from earlier work
[2] = test system: patient, a child with symptoms of autism; assay: Daily transdermal secretin with DMSO in the same patient (Example 2); format: in vivo, human
Experimental: At the time of this treatment, the patient was […]. Secretin was administered transdermally using pharmaceutical grade dimethyl sulfoxide (DMSO) (generally 99.9% pure) available from Clinic Service Co., Box 2512, Hemet Calif. 92543. The secretin (Secretin-Ferring) was administered daily in a dosage of about 75 CU over a five day period (i.e., about 15 CU daily). For each treatment, about 4 drops of DMSO were placed onto the skin of the patient, about 15 CU of the crystalline secretin was placed onto the DMSO, and the composition was rubbed into the skin.

[3] = test system: patient, a child with symptoms of autism; assay: Intravenous secretin infusion in a child with symptoms of autism (Example 1); format: in vivo, human
Description: The present invention will be better understood from the following examples which are given by way of illustration and not by way of limitation. The patient, the same in both examples, is a child with symptoms of autism.
The patient in the present examples developed normally […], with the exception of gastrointestinal problems (i.e., chronic diarrhea and constipation) which began at about six months. At about thirteen months, when whole milk was introduced into their diet, the patient began having reoccurring ear infections. At about fourteen months, the patient appeared to lose the ability to process language, first receptively (at about 14 months) then expressively (at about 16 months). The patient also experienced episodes of “shivers” that appeared to be intermittent seizures.
After consulting with numerous neurologists, pediatricians, child development specialists, audiologists, endocrinologists, allergists, and other medical professionals, no consistent diagnosis had been reached. […] The term autism is used herein for reference purposes only, and this invention is intended to apply to any number of pervasive developmental disorders as well as neurological and immunological disorders.
Further, the patient's secretin cells prior to receiving treatment, measured at a level of 9, are far below the normal limit in the range of 20-70.
When the patient was […], the secretin was administered by way of an infusion as part of an upper gastrointestinal endoscopy. The secretin was used in this diagnostic procedure at the request of the patient's parents, one of which is an inventor of the present invention. The secretin used in this procedure is known as Secretin-Ferring available from Ferring Laboratories, Inc., Suffern, New York (See Appendix A). The secretin was dissolved in a […] of sodium chloride and administered in a dosage of 2 clinical units (CU) per kilogram (kg) body weight by intravenous injection over one minute. […] The diagnostic tests performed on the patient during this procedure also indicated gastric inflammation. […] The following Table I summarizes the improvements observed in the patient within 3 weeks after the infusion of secretin.

secretin (HSDGTFTSELSRLRDSARLQRLLQGLV; not fully specified; ends and bridges not checked; UniProt P63298 33-59, looked up) [polypeptide hormone secreted by the mucosa of the duodenum and upper jejunum; used as Secretin-Ferring from Ferring Laboratories]
abnormal opioid peptides after secretin infusion [1]: the peptides disappeared | language ([2]; transdermal with DMSO, about 15 CU daily, within about 6 months): progressed to spontaneous and conversational language | autistic behavioral symptoms on stopping the daily dose ([2]; when the daily dose of secretin is stopped): the autistic behavioral symptoms return | time at which the rate of progress appeared to decrease ([3]; after first infusion, behavioral improvements continued): about 5 weeks | SPECT scan perfusion of the right posterior parietal and right temporal lobes ([3]; after the treatment): improved | rubella titers ([3]; after the treatment, before: 5.8): 2.3 | serotonin levels in blood ([3]; blood tests after the treatment): a rise in serotonin levels | pancreatic juice released ([3]; immediately after 2 CU/kg iv over one minute, usual rate 1-2 ml/min): approximately 10 ml/min | result of second and third infusions ([3]; second infusion about 9 months after the first, third about three months after the second): achieved the same results | spinning episodes ([3]; within 3 weeks after infusion, before: 1-2 times/week): No spinning episodes. | toilet training ([3]; within 3 weeks after infusion, before: diapers only): Completely potty trained. | eye contact, share of the time ([3]; within 3 weeks after infusion, before: minimal eye contact): Eye contact 75% of the time. | connections made between language and objects ([3]; within 3 weeks after infusion, before: no apparent connections): Many connections made between | words spoken ([3]; within 3 weeks after infusion, before: two words): 100's of words-will repeat some | interaction with videos ([3]; within 3 weeks after infusion, before: watch videos): Now, gets “involved” interactively | water consumption ([3]; within 3 weeks after infusion, no change, before: approximately 50 cups per day): change approximately 50 cups per cups per day | chronic abnormal bowel movements ([3]; within days after administration, no change in diet): became normal
